Experimental data published in PubChem BioAssay AID1963843 (Molecular Pharmacology Branch, DTP, NCI, 2024).

Tested on: 616215-338-R-J1-PDC complex spheroid viability
Test: Anticancer human tumor 616215-338-R-J1-PDC patient-derived colon adenocarcinoma cell line growth inhibition [POLQ]
Details: for IC50: curve of first compound; for viability, T/C: stronger effect = lower value
Method in brief: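 PDC + HUVEC + MSC complex spheroids; POLQ inhibitors ± partner drugs; top conc. at/near clinical Cmax, else 10 microM (SN-38 1 microM), half-log dilutions; 37 degrees C, 5% CO2.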

[1] = second compound 0.0316 µM, first compound 0.0316 µM
[2] = second compound 0.0316 µM, first compound 0.1 µM
[3] = second compound 0.0316 µM, first compound 0.316 µM
[4] = second compound 0.0316 µM, first compound 1 µM
[5] = second compound 0.0316 µM, first compound 3.16 µM
[6] = second compound 0.0316 µM, first compound 10 µM
[7] = second compound 0.1 µM, first compound 0.0316 µM
[8] = second compound 0.1 µM, first compound 0.1 µM
[9] = second compound 0.1 µM, first compound 0.316 µM
[10] = second compound 0.1 µM, first compound 1 µM
[11] = second compound 0.1 µM, first compound 3.16 µM
[12] = second compound 0.1 µM, first compound 10 µM
[13] = second compound 0.316 µM, first compound 0.0316 µM
[14] = second compound 0.316 µM, first compound 0.1 µM
[15] = second compound 0.316 µM, first compound 0.316 µM
[16] = second compound 0.316 µM, first compound 1 µM
[17] = second compound 0.316 µM, first compound 3.16 µM
[18] = second compound 0.316 µM, first compound 10 µM
[19] = second compound 1 µM, first compound 0.0316 µM
[20] = second compound 1 µM, first compound 0.1 µM
[21] = second compound 1 µM, first compound 0.316 µM
[22] = second compound 1 µM, first compound 1 µM
[23] = second compound 1 µM, first compound 3.16 µM
[24] = second compound 1 µM, first compound 10 µM
[25] = second compound 3.16 µM, first compound 0.0316 µM
[26] = second compound 3.16 µM, first compound 0.1 µM
[27] = second compound 3.16 µM, first compound 0.316 µM
[28] = second compound 3.16 µM, first compound 1 µM
[29] = second compound 3.16 µM, first compound 3.16 µM
[30] = second compound 3.16 µM, first compound 10 µM
[31] = second compound 10 µM, first compound 0.0316 µM
[32] = second compound 10 µM, first compound 0.1 µM
[33] = second compound 10 µM, first compound 0.316 µM
[34] = second compound 10 µM, first compound 1 µM
[35] = second compound 10 µM, first compound 3.16 µM
[36] = second compound 10 µM, first compound 10 µM
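Further: spheroids exposed to compounds for one week before readout.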
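Wherever viability, T/C is given: percent viability relative to DMSO vehicle wells taken as 100%.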

## C#Cc1c(F)ccc2cc(O)cc(-c3ncc4c(N5CC6CCC(C5)N6)nc(OCC56CCCN5CC(F)C6)nc4c3F)c12 (stereo not drawn) + COC1C(OC(N)=O)C(O)C(Oc2ccc3c(O)c(NC(=O)c4ccc(O)c(CC=C(C)C)c4)c(=O)oc3c2C)OC1(C)C
Second compound 0.0316 µM
  IC50: > 10000 nM
Second compound 0.1 µM
  IC50: > 10000 nM
Second compound 0.316 µM
  IC50: > 10000 nM
Second compound 1 µM
  IC50: > 10000 nM
Second compound 3.16 µM
  IC50: > 10000 nM
Second compound 10 µM
  IC50: > 10000 nM
[1]
  viability, T/C: 108%
[2]
  viability, T/C: 109%
[3]
  viability, T/C: 101%
[4]
  viability, T/C: 112%
[5]
  viability, T/C: 113%
[6]
  viability, T/C: 79.2%
[7]
  viability, T/C: 103%
[8]
  viability, T/C: 105%
[9]
  viability, T/C: 98.2%
[10]
  viability, T/C: 108%
[11]
  viability, T/C: 95.8%
[12]
  viability, T/C: 64.1%
[13]
  viability, T/C: 110%
[14]
  viability, T/C: 102%
[15]
  viability, T/C: 110%
[16]
  viability, T/C: 105%
[17]
  viability, T/C: 103%
[18]
  viability, T/C: 58.1%
[19]
  viability, T/C: 105%
[20]
  viability, T/C: 108%
[21]
  viability, T/C: 109%
[22]
  viability, T/C: 94.7%
[23]
  viability, T/C: 103%
[24]
  viability, T/C: 71.3%
[25]
  viability, T/C: 105%
[26]
  viability, T/C: 109%
[27]
  viability, T/C: 103%
[28]
  viability, T/C: 110%
[29]
  viability, T/C: 104%
[30]
  viability, T/C: 64%
[31]
  viability, T/C: 94.5%
[32]
  viability, T/C: 103%
[33]
  viability, T/C: 109%
[34]
  viability, T/C: 106%
[35]
  viability, T/C: 100%
[36]
  viability, T/C: 82.6%

## CC1COCCN1c1cc(C2(O)CC3CCC(C2)O3)c2cnn(-c3ccn[nH]3)c2n1 (stereo not drawn) + COC1C(OC(N)=O)C(O)C(Oc2ccc3c(O)c(NC(=O)c4ccc(O)c(CC=C(C)C)c4)c(=O)oc3c2C)OC1(C)C
Second compound 0.0316 µM
  IC50: 1990 nM
Second compound 0.1 µM
  IC50: 2050 nM
Second compound 0.316 µM
  IC50: 1830 nM
Second compound 1 µM
  IC50: 2040 nM
Second compound 3.16 µM
  IC50: 1290 nM
Second compound 10 µM
  IC50: 960 nM
[1]
  viability, T/C: 109%
[2]
  viability, T/C: 91.5%
[3]
  viability, T/C: 71%
[4]
  viability, T/C: 64.1%
[5]
  viability, T/C: 39.5%
[6]
  viability, T/C: 35.6%
[7]
  viability, T/C: 102%
[8]
  viability, T/C: 91.4%
[9]
  viability, T/C: 72%
[10]
  viability, T/C: 57.6%
[11]
  viability, T/C: 46.7%
[12]
  viability, T/C: 36.5%
[13]
  viability, T/C: 106%
[14]
  viability, T/C: 90.2%
[15]
  viability, T/C: 69.4%
[16]
  viability, T/C: 60.1%
[17]
  viability, T/C: 42.7%
[18]
  viability, T/C: 30.5%
[19]
  viability, T/C: 105%
[20]
  viability, T/C: 90.6%
[21]
  viability, T/C: 74.3%
[22]
  viability, T/C: 57.1%
[23]
  viability, T/C: 47.8%
[24]
  viability, T/C: 28%
[25]
  viability, T/C: 99.4%
[26]
  viability, T/C: 86.8%
[27]
  viability, T/C: 64.5%
[28]
  viability, T/C: 50.3%
[29]
  viability, T/C: 46.2%
[30]
  viability, T/C: 21.6%
[31]
  viability, T/C: 100%
[32]
  viability, T/C: 79.3%
[33]
  viability, T/C: 57.4%
[34]
  viability, T/C: 53.2%
[35]
  viability, T/C: 40.5%
[36]
  viability, T/C: 25.2%

## CCc1cc2c(N3CCc4c(cc(Cn5ccnc5)cc4-c4cn(C)nc4C(F)(F)F)C3=O)cc(C)nc2c(OC)n1 + COC1C(OC(N)=O)C(O)C(Oc2ccc3c(O)c(NC(=O)c4ccc(O)c(CC=C(C)C)c4)c(=O)oc3c2C)OC1(C)C
Second compound 0.0316 µM
  IC50: 8700 nM
Second compound 0.1 µM
  IC50: 9030 nM
Second compound 0.316 µM
  IC50: 6270 nM
Second compound 1 µM
  IC50: 8550 nM
Second compound 3.16 µM
  IC50: 8180 nM
Second compound 10 µM
  IC50: 9280 nM
[1]
  viability, T/C: 101%
[2]
  viability, T/C: 109%
[3]
  viability, T/C: 109%
[4]
  viability, T/C: 110%
[5]
  viability, T/C: 60.5%
[6]
  viability, T/C: 48.6%
[7]
  viability, T/C: 106%
[8]
  viability, T/C: 111%
[9]
  viability, T/C: 99.5%
[10]
  viability, T/C: 92.9%
[11]
  viability, T/C: 64.6%
[12]
  viability, T/C: 48.8%
[13]
  viability, T/C: 106%
[14]
  viability, T/C: 109%
[15]
  viability, T/C: 99.7%
[16]
  viability, T/C: 91%
[17]
  viability, T/C: 59.8%
[18]
  viability, T/C: 43.1%
[19]
  viability, T/C: 113%
[20]
  viability, T/C: 105%
[21]
  viability, T/C: 104%
[22]
  viability, T/C: 85.1%
[23]
  viability, T/C: 57%
[24]
  viability, T/C: 49.2%
[25]
  viability, T/C: 113%
[26]
  viability, T/C: 110%
[27]
  viability, T/C: 102%
[28]
  viability, T/C: 86.6%
[29]
  viability, T/C: 76%
[30]
  viability, T/C: 44.2%
[31]
  viability, T/C: 115%
[32]
  viability, T/C: 99.2%
[33]
  viability, T/C: 95%
[34]
  viability, T/C: 77.3%
[35]
  viability, T/C: 53.8%
[36]
  viability, T/C: 51.8%

## COc1cccc2c1C(=O)c1c(O)c3c(c(O)c1C2=O)CC(O)(C(=O)CO)CC3OC1CC(N)C(O)C(C)O1 (stereo not drawn) + Cc1cccc(N(C)C(=O)C2C(O)CCN2c2nc(C)cc(C(F)(F)F)c2C#N)c1
Second compound 0.0316 µM
  IC50: 1070 nM
Second compound 0.1 µM
  IC50: 1000 nM
Second compound 0.316 µM
  IC50: 785 nM
Second compound 1 µM
  IC50: 688 nM
Second compound 3.16 µM
  IC50: 665 nM
Second compound 10 µM
  IC50: 823 nM
[1]
  viability, T/C: 95.8%
[2]
  viability, T/C: 92.5%
[3]
  viability, T/C: 79.8%
[4]
  viability, T/C: 55.9%
[5]
  viability, T/C: 6.78%
[6]
  viability, T/C: 0.53%
[7]
  viability, T/C: 109%
[8]
  viability, T/C: 92.1%
[9]
  viability, T/C: 80%
[10]
  viability, T/C: 57.5%
[11]
  viability, T/C: 6.89%
[12]
  viability, T/C: 0.26%
[13]
  viability, T/C: 106%
[14]
  viability, T/C: 83.4%
[15]
  viability, T/C: 69.2%
[16]
  viability, T/C: 56.7%
[17]
  viability, T/C: 3.48%
[18]
  viability, T/C: 0.22%
[19]
  viability, T/C: 111%
[20]
  viability, T/C: 85.8%
[21]
  viability, T/C: 71.2%
[22]
  viability, T/C: 48.3%
[23]
  viability, T/C: 3.44%
[24]
  viability, T/C: 0.22%
[25]
  viability, T/C: 96.6%
[26]
  viability, T/C: 79.9%
[27]
  viability, T/C: 65.5%
[28]
  viability, T/C: 48.9%
[29]
  viability, T/C: 1.58%
[30]
  viability, T/C: 0.25%
[31]
  viability, T/C: 83.2%
[32]
  viability, T/C: 82.6%
[33]
  viability, T/C: 76.7%
[34]
  viability, T/C: 44.7%
[35]
  viability, T/C: 0.88%
[36]
  viability, T/C: 0.31%
